Legend:
[1] = test system: SHSYP301L cells; assay: Immunoblotting of tau, Ac-α-tubulin and chaperones in tau-overexpressing cells; assay type: cell-based
Method: (§1) SHSY5Y cells stably-expressing mutant tau (SHSYP301L) were cultured in DMEM/F12 + 15% FBS, 3 μg/ml Blasticidin S HCl, and 1X PSN. N2A mouse neuroblastoma and mouse hippocampal neuronal (HT22) cells were cultured in DMEM+10% FBS, and 1X PSN. Sterile complete medium containing PRO-Br was added to the cells, and they were then incubated for 24 h at an optimum temperature of 37°C in a sterile 5% CO2 incubator.
(§2) After PRO-Br treatment, cells were solubilised using cold RIPA lysis buffer (9803, Life Technologies), containing protease and phosphatase inhibitor tablets. Cells were sonicated and centrifuged at 14000 rpm for 15 min. Total protein concentration was determined by BCA protein assay, and the samples were separated on SDS-PAGE and transferred to PVDF membranes. The membranes were blocked, washed, and incubated with primary antibodies (Table 1), and incubated at 4°C, overnight. The membranes were further incubated with the required dilutions of secondary antibody for 1 h, at RT. The chemiluminescent signals were captured using x-ray film in a darkroom, with an appropriate chemiluminescent substrate kit (ThermoFisher Scientific, United States). Films were scanned, and the relative intensities of the signals were analyzed using ImageJ software.

[2] = test system: 3xTg-AD mice; assay: Golgi staining of dendritic spines; assay type: in vivo; settings: oral, 8 months
Method: (§3) Female homozygous 3xTg-AD mice carrying transgenes for APP (Swedish KM670/671Nl), MAPT (tauP301L) and Psen1 (M146V) were procured from Jackson’s Laboratory (# 004807). The transgenic mice colonies were bred and maintained in the HKBU animal house at 23 ± 2 °C, 60 ± 15% relative humidity with regular access to food and water. Seven-month-old 3xTg-AD mice were randomly segregated into three treatment groups: Tg-Vehicle, 1 mg/kg, and 2.5 mg/kg PRO-Br. PRO-Br was administered orally for 8 months (n = 8). The bodyweight of mice from all the groups was recorded once every week.
FD Rapid Golgi Stain Kit was employed to determine the dendritic spine density in the 3xTg-AD mice brains and was performed according to procedure described previously ([Iyaswamy et al., 2022]). Briefly, mice were perfused using 4% PFA, and the brains were dissected carefully to avoid damage. Next, the brain samples were frozen by dipping in isopentane solution (on dry ice). The frozen brains were sectioned at 150 μm thickness using a Shandon Cryotome SME Cryostat (Ramsey, MN, United States). The tissue slices were carefully mounted onto glass slides and stained with the kit reagents in accordance with the manufacturer’s procedure. The dendritic images were acquired by Leica confocal microscope. […]

[3] = test system: P301S mice; assay: Rotarod test; assay type: in vivo; settings: oral, 2.5 months, vs Tg-Vehicle
Method: Female homozygous P301S mice bearing the transgene for MAPT (P301S), were generous gifts from Michael Goedert. P301S-tau mice (1.5-month-old, n = 8) were administered with PRO-Br daily for 2.5 months. The mice models employed in the study were maintained under 12 h light-dark cycles and were provided ad libitum access to chow and water.
Motor behavior was assessed by the rotarod test (Harvard apparatus, SeDaCom v2.0.000) and was performed according to the procedure described previously ([Song et al., 2020]). The study mice were brought into the experimental room 30 min before the test. The training was conducted with a constant speed of 4, 8, and 12 rpm on days 1, 2, and 3, respectively. Three trials were conducted each day and the performance was monitored. On the fourth day, an acceleration mode (4–40 rpm in 5 min) was introduced, and the time spent (s) by each mouse on the rod was recorded by the instrument connected to a computer.

[4] = test system: 3xTg-AD mice; assay: Brain immunoblotting (sarkosyl tau fractions, chaperones, LAMP2A) and IHC; assay type: in vivo
Method: as §3
Brain tissues from experimental mice were carefully isolated, washed with 1X PBS, and fixed with 4% paraformaldehyde. Post-fixation for 48 h, brain tissues were transferred to 30% sucrose solution for cryopreservation. Tissue sections (30 μm) were obtained using a cryotome, maintained at a constant -30°C. Permeabilization was performed with 0.4% triton-X-100 for 10 min. For tau immunofluorescence, PHF1 primary antibody was added, and sections were kept overnight at four°C. The following day, an appropriate secondary antibody was added at RT for 1.5 h. DAPI was used as a nuclear stain for 5 min. For DAB staining, AT8 primary antibody was added to the sections overnight. The next day, an appropriate secondary antibody was added for 1.5 h. Staining was performed by employing a Vectastain-ELITE ABC-HRP kit according to the manufacturer’s procedure. The stained sections were carefully arranged on glass slides and mounted with an appropriate mounting medium under a coverslip. Images of cortical/hippocampal regions were taken with an Eclipse 80i fluorescence microscope (Nikon Instruments Inc.). The threshold was adjusted to remove the background staining. The captured images were quantified using ImageJ (NIH) software.
Brain tissues of 3xTg-AD and P301S mice were separated, sagittally, into equal halves. One-half was lysed with tissue lysis buffer augmented with phosphatase and protease inhibitor cocktail tablets, while the other half was used for immunohistochemical analysis. Brain tissues were homogenized on ice using an Ultra Turrax tissue homogenizer. Brain tissue homogenate was subjected to sarkosyl differential centrifugation with 1% sarkosyl to separate the non-pathogenic soluble and pathogenic insoluble tau fractions. Protein lysates were evaluated for changes in levels of phospho epitopes of tau (AT8, CP13, PHF-1, MC-1, and ALZ50), and for total htau (HT7) using Western blot.
as §2

[5] = test system: HT22 cells; assay: LAMP2A / HSC70 immunocytochemistry and immunoblotting; assay type: cell-based, mouse
Method: as §1, §2
HT22 cells were cultured in sterile 24-well culture dishes containing 14 mm cover-glass. Cells were treated with PRO-Br (12.5 and 25 μM), and DMSO (0.1%), for 24 h. Cells were fixed with paraformaldehyde (4%), permeabilized with triton-X-100 (0.1%), and blocked with BSA (2%). LAMP2A antibody (1:500), and HSC70 antibody (1:500) was added to the processed cells and incubated overnight at four°C. Alexa Fluor® 488 (green) and Alexa Fluor® 594 (red) secondary antibodies (1:400) were added and incubated for 1.5 h at room temperature. FluorSave reagent (Merck Millipore, United States) was added, then cover-slipped, and images were captured by a Leica confocal imaging system.

[6] = test system: N2A cells; assay: LAMP2A / HSC70 expression; assay type: cell-based, mouse; settings: compared to Trehalose (positive control)
Method: as §1, §2

## CN1CCc2cc3c(cc2C(=O)Cc2c(Br)cc4c(c2C1)OCO4)OCO3 [PRO-Br, bromo-protopine]
[1]; 24 h
  PHF1 and TAU5 levels: simultaneously reducing PHF1 and TAU5 levels
  expression of HSP70: significantly and dose-dependently augmented the expression of HSP70
[1]; compared to PRO
  acetylation of α-tubulin: enhanced the acetylation of α-tubulin
[1]; compared to PRO-Br treatment alone
  PHF1 degradation on co-treatment with CMA/lysosomal protease inhibitors E64D and pepstatin: significantly blocked the degradation of PHF1 levels
[1]; preliminary screening
  tau/PHF1-reducing activity: good tau/PHF1-reducing activity
[1]; proteasome, autophagy or lysosome inhibitor co-treatment
  PHF1 degradation on co-treatment with MG132, Wortmannin or Chloroquine: did not block PRO-Br-mediated PHF1 degradation
[2]
  dendritic spine structures (thin, stubby and mushroom-like) in the hippocampus: significantly enhanced the dendritic spine structures
[3]
  latency of falling (rotarod): latency of falling was significantly enhanced
[4]; 1.0 and 2.5 mg/kg, IHC
  AT8-positive cell count in the cortico-hippocampal regions: significantly reduced AT8-positive cell count
[4]; brain, immunoblotting
  acetylation of HSP90 (K294): dose-dependently enhanced the acetylation of HSP90 (K294)
  expression of sarkosyl-insoluble phospho-tau variants: specifically reduced the expression of sarkosyl-insoluble phospho-tau variants in a dose-dependent manner
  heat shock proteins HSP70 and HSC70: dose-dependently increased the heat shock proteins HSP70 and HSC70
  protein expression of LAMP2A: dose-dependently increased
[5]; immunocytochemistry, 12.5 and 25 μM, 24 h
  expression of LAMP2A: distinctly enhanced the expression of LAMP2A in a dose-dependent manner
[5]; immunofluorescence
  interaction between HSC70 and LAMP2A: markedly enhanced the interaction between HSC70 and LAMP2A
[6]
  expression of LAMP2A and HSC70: increased expression of LAMP2A and HSC70
